Experimental data as given in the supplement of paper PMC10326909.

Assay: ESI positive response factor (isotope-corrected peak area per molar concentration) in SFC/ESI/HRMS (area units per M); higher = higher ionization efficiency
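Also: standards in acetonitrile/water run in triplicate on a zwitterionic HILIC column, CO2–methanol gradient containing 20 mmol/L ammonium acetate, postcolumn makeup flow, Orbitrap full-scan detection.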

| Structure (SMILES) | ESI positive response factor (0.035 µM) | ESI positive response factor (0.0875 µM) | ESI positive response factor (0.175 µM) | ESI positive response factor (0.35 µM) | ESI positive response factor (0.0175 µM) | further results |
| --- | --- | --- | --- | --- | --- | --- |
| O=C(O)C(c1ccccc1)C1CCCCN1 (stereo unspecified) [Ritalinic acid] | 1.26e+17 | 1.24e+17 | 1.12e+17 | 1.31e+17 | – | ESI positive response factor (0.875 µM): 1.17e+17; ESI positive response factor (1.75 µM): 1.26e+17 |
| Nc1nc(N)nc(N)n1 [Melamine] | – | – | – | – | – | ESI positive response factor (0.0244 µM): 1.84e+16; ESI positive response factor (0.061 µM): 2.07e+16; ESI positive response factor (0.122 µM): 1.7e+16; ESI positive response factor (0.244 µM): 1.82e+16 |
| NCCCC[C@H](N[C@@H](CCc1ccccc1)C(=O)O)C(=O)N1CCC[C@H]1C(=O)O [Lisinopril] | – | – | – | – | – | ESI positive response factor (0.0122 µM): 7.7e+15; ESI positive response factor (0.0244 µM): 1.4e+16; ESI positive response factor (0.061 µM): 1.89e+16; ESI positive response factor (0.122 µM): 1.43e+16; ESI positive response factor (0.244 µM): 1.58e+16 |
| O=P(OCCCl)(OCCCl)OCCCl [Tris(2-chloroethyl) phosphate] | 2.89e+18 | 2.72e+18 | – | – | 2.68e+18 | – |
| CCCCCC(C)N (stereo unspecified) [2-Aminoheptane] | 1.87e+16 | 1.47e+16 | – | – | – | – |
| COc1ccc(O)c(C(C)(C)C)c1 [Butylated hydroxyanisole] | – | 3.78e+15 | 2.82e+15 | 3.32e+15 | – | ESI positive response factor (0.875 µM): 3.01e+15 |
| COC=C(C(=O)OC)c1ccccc1COc1cccc(C(F)(F)F)n1 [Picoxystrobin] | 2.82e+17 | 2.61e+17 | 2.25e+17 | 2.47e+17 | 2.81e+17 | – |
| N=c1nc(N2CCCCC2)cc(N)n1O [Minoxidil] | – | – | – | – | – | ESI positive response factor (0.0122 µM): 1.59e+17; ESI positive response factor (0.0244 µM): 1.78e+17; ESI positive response factor (0.061 µM): 1.77e+17; ESI positive response factor (0.122 µM): 1.69e+17; ESI positive response factor (0.244 µM): 1.72e+17 |
| CCOP(=S)(OCC)Oc1cc(C)nc(C(C)C)n1 [Diazinon] | 5.67e+16 | 3.71e+16 | 5.13e+16 | – | 3.13e+16 | – |
| Nc1ncnc2c1ncn2C1OC(CO)C(O)C1O (stereo unspecified) [Adenosine] | 1.46e+17 | 1.26e+17 | – | – | – | – |
| CNC(=O)CSP(=S)(OC)OC [Dimethoate] | 5.3e+16 | 5.84e+16 | 5.04e+16 | 5.56e+16 | 5.46e+16 | – |
| CNC(=O)Oc1cccc2c1OC(C)(C)C2 [Carbofuran] | 8.12e+16 | 8.68e+16 | 7.6e+16 | 9.93e+16 | 8.85e+16 | – |
| CC(=O)NCCCS(=O)(=O)O [Acamprosate] | – | – | 3.1e+15 | 3.14e+15 | – | ESI positive response factor (0.875 µM): 3.18e+15; ESI positive response factor (1.75 µM): 3.25e+15 |
| CC(CCl)OP(=O)(OC(C)CCl)OC(C)CCl (stereo unspecified) [TCPP] | 1.21e+18 | 1.02e+18 | 8.34e+17 | 7.91e+17 | 1.59e+18 | – |
| NCC1(CC(=O)O)CCCCC1 [Gabapentin] | – | – | – | – | – | ESI positive response factor (0.244 µM): 2.98e+16; ESI positive response factor (0.61 µM): 2.83e+16; ESI positive response factor (1.22 µM): 3.28e+16 |
| C[N+](C)(C)CC(=O)O [Betaine] | 1.36e+17 | 1.14e+17 | – | – | 1.5e+17 | – |
| O=c1nc2[nH][nH]cc-2c(=O)[nH]1 [Oxypurinol] | – | – | – | – | – | ESI positive response factor (0.875 µM): 5.5e+14; ESI positive response factor (1.75 µM): 4.78e+14 |

| Structure (SMILES) | ESI positive response factor (0.035 µM) | ESI positive response factor (0.0875 µM) | ESI positive response factor (0.175 µM) | ESI positive response factor (0.35 µM) | ESI positive response factor (0.0175 µM) | further results |
| --- | --- | --- | --- | --- | --- | --- |
| CC(C)NCC(O)COc1ccc(CC(N)=O)cc1 (stereo unspecified) [Atenolol] | 1.81e+17 | 1.82e+17 | 1.75e+17 | 1.8e+17 | 1.75e+17 | – |
| N[C@@H](Cc1ccccc1)C(=O)O [L-Phenylalanin] | – | – | – | – | – | ESI positive response factor (0.122 µM): 1.51e+16; ESI positive response factor (0.244 µM): 1.44e+16; ESI positive response factor (0.61 µM): 1.27e+16 |
| O=C(O)[C@@H]1C[C@@H](O)CN1 [L-Hydroxyprolin] | – | – | – | – | – | ESI positive response factor (0.122 µM): 2.76e+15; ESI positive response factor (0.244 µM): 3.07e+15; ESI positive response factor (0.61 µM): 2.85e+15 |
| Cn1c(N)c(NC=O)c(=O)n(C)c1=O [6-Amino-1,3dimethyl-5-(formylamino)uracil] | – | 8.08e+14 | – | 2.17e+15 | – | ESI positive response factor (0.875 µM): 2.09e+15; ESI positive response factor (1.75 µM): 2.18e+15 |
| CC1(C)CCC(Cc2ccc(Cl)cc2)C1(O)Cn1cncn1 (stereo unspecified) [Metconazol] | – | – | – | – | – | ESI positive response factor (0.0122 µM): 3.22e+17; ESI positive response factor (0.0244 µM): 3.52e+17; ESI positive response factor (0.061 µM): 3.16e+17 |
| Cn1cnc2c1c(=O)n(CCCC(=O)O)c(=O)n2C [1-(3-Carboxypropyl)-3,7-dimethyl-xanthin] | 2.12e+16 | 2.2e+16 | 2e+16 | 2.34e+16 | 1.77e+16 | ESI positive response factor (0.875 µM): 2.22e+16 |
| O=c1[nH]sc2ccccc12 [Benzisothiazolinone] | 1.45e+16 | 1.52e+16 | 1.36e+16 | 1.55e+16 | – | – |
| CC1(C)CC(O)CC(C)(C)N1 [2,2,6,6-Tetramethyl-4-piperidinol] | 1.78e+17 | 1.53e+17 | 1.47e+17 | 1.58e+17 | 1.95e+17 | – |
| CC(C)NCC(O)COc1ccc(C(=O)O)cc1 (stereo unspecified) [Bisoprolol-M3] | 1.76e+17 | 1.65e+17 | 1.64e+17 | 1.6e+17 | 1.43e+17 | – |
| CSc1nnc(C(C)(C)C)c(=O)n1N [Metribuzin] | – | – | – | – | – | ESI positive response factor (0.0122 µM): 2.83e+17; ESI positive response factor (0.0244 µM): 2.15e+17; ESI positive response factor (0.061 µM): 1.69e+17; ESI positive response factor (0.122 µM): 1.54e+17; ESI positive response factor (0.244 µM): 1.52e+17 |
| CON(C)C(=O)Nc1ccc(Cl)c(Cl)c1 [Linuron] | – | – | – | – | – | ESI positive response factor (0.0122 µM): 4.3e+16; ESI positive response factor (0.0244 µM): 3.86e+16; ESI positive response factor (0.061 µM): 4.29e+16; ESI positive response factor (0.122 µM): 4.05e+16; ESI positive response factor (0.244 µM): 4.46e+16 |
| CC(C)(CO)[C@@H](O)C(=O)NCCCO [Panthenol] | – | – | – | – | – | ESI positive response factor (0.0122 µM): 5.93e+16; ESI positive response factor (0.0244 µM): 6.23e+16; ESI positive response factor (0.061 µM): 6.32e+16; ESI positive response factor (0.122 µM): 6.16e+16; ESI positive response factor (0.244 µM): 6.31e+16 |
| COP(=O)(OC)SCn1c(=O)oc2cc(Cl)cnc21 [Azamethiphos] | 7.29e+17 | 6.44e+17 | 6.11e+17 | – | 6.62e+17 | – |
| Nc1ccccn1 [2-Aminopyridine] | 1.33e+16 | 1.55e+16 | 1.48e+16 | 1.73e+16 | – | – |
| Cn1sccc1=O [Methylisothiazolinone] | – | – | – | – | – | ESI positive response factor (0.61 µM): 9.58e+14; ESI positive response factor (1.22 µM): 1.18e+15 |
| Cc1cccc(C)c1N(Cn1cccn1)C(=O)CCl [Metazachlor] | – | – | – | – | – | ESI positive response factor (0.0122 µM): 3.21e+17; ESI positive response factor (0.0244 µM): 3.32e+17; ESI positive response factor (0.061 µM): 3.05e+17; ESI positive response factor (0.122 µM): 2.62e+17; ESI positive response factor (0.244 µM): 2.65e+17 |
| CN(C)C(=O)Nc1ccc(Cl)cc1 [Monuron] | – | – | – | – | – | ESI positive response factor (0.0122 µM): 2.43e+16; ESI positive response factor (0.0244 µM): 2.85e+16; ESI positive response factor (0.061 µM): 3.31e+16; ESI positive response factor (0.122 µM): 3.07e+16; ESI positive response factor (0.244 µM): 3.26e+16 |

Second part, led by results:

| ESI positive response factor (0.035 µM) | ESI positive response factor (0.0875 µM) | ESI positive response factor (0.175 µM) | ESI positive response factor (0.35 µM) | ESI positive response factor (0.0175 µM) | Structure (SMILES) | further results |
| --- | --- | --- | --- | --- | --- | --- |
| 9.61e+16 | 6.97e+16 | 5.79e+16 | 6.32e+16 | – | NCC1CCC(C(=O)O)CC1 (stereo unspecified) [Tranexamic acid] | ESI positive response factor (0.875 µM): 6.01e+16 |
| 2.22e+17 | 2.03e+17 | – | – | 2.34e+17 | Cn1c(=O)c2c(ncn2C)n(C)c1=O [Caffeine] | – |
| 7.64e+16 | 6.02e+16 | 5.72e+16 | – | 7.67e+16 | COC(=O)CCCCCCCCC(=O)OC [Dimethylsebacate] | – |
| 5.69e+15 | 1e+16 | 1.1e+16 | 1.34e+16 | – | OCCN1C[C@H](O)[C@@H](O)[C@H](O)[C@H]1CO [Miglitol] | ESI positive response factor (0.875 µM): 1.42e+16; ESI positive response factor (1.75 µM): 1.46e+16 |
| 5.01e+17 | 5.44e+17 | 5.09e+17 | – | 4.81e+17 | NC(=O)C1(N2CCCCC2)CCN(CCCC(=O)c2ccc(F)cc2)CC1 [Pipamperone] | – |
| 8.46e+16 | 6.97e+16 | 5.79e+16 | 6.32e+16 | – | C=CC(=O)OCC[N+](C)(C)C [[2-(Acryloyloxy)ethyl]trimethylammonium] | ESI positive response factor (0.875 µM): 6.01e+16 |
| – | 2.45e+15 | 5.22e+15 | – | – | CN(C)N/N=C1/N=CN=C1C(N)=O [Dacarbazine] | – |
| 9.95e+16 | 9.42e+16 | – | – | 9.45e+16 | CCOC(=O)CN1CCCC1=O [Ethyl 2-oxo-1-pyrrolidineacetate] | – |
| 8.5e+15 | 9.06e+15 | 1.22e+16 | 1.22e+16 | – | CCN[C@H]1C[C@H](C)S(=O)(=O)c2sc(S(N)(=O)=O)cc21 [Dorzolamide] | ESI positive response factor (0.875 µM): 1.24e+16; ESI positive response factor (1.75 µM): 1.24e+16 |
| 5.36e+16 | 5.55e+16 | 5.75e+16 | 6.09e+16 | 2.86e+16 | CCCCC(=O)N(Cc1ccc(-c2ccccc2-c2nn[nH]n2)cc1)C(C(=O)O)C(C)C (stereo unspecified) [Valsartan] | ESI positive response factor (0.875 µM): 6.04e+16; ESI positive response factor (1.75 µM): 5.94e+16 |
| 2.23e+17 | 2.16e+17 | 2.35e+17 | 2.4e+17 | 1.59e+17 | CN(C)CCOC(c1ccccc1)c1ccccc1 [Diphenhydramine] | ESI positive response factor (0.875 µM): 2.25e+17 |
| 1.3e+17 | 1.25e+17 | 1.16e+17 | 1.25e+17 | 1.27e+17 | CCC[C@@H]1O[C@@H]2C[C@H]3[C@@H]4CCC5=CC(=O)C=C[C@]5(C)[C@H]4[C@@H](O)C[C@]3(C)[C@]2(C(=O)CO)O1 [Budesonid] | – |
